Assays:
[1] = tested on: Mus musculus; assay: Dose normalized AUC in C57BL/6 mouse at 10 mg/kg, po; assay type: ADME, organism-based; design: dose 10 mg/kg, route oral; conditions: in vivo
[2] = tested on: Mus musculus; assay: Dose normalized AUC (0 to t) in C57BL/6 mouse at 10 mg/kg, po; assay type: ADME, organism-based; design: dose 10 mg/kg, route oral; conditions: in vivo

Compound | AUC/dose [1] | AUCt/dose [2]
Cc1cccnc1CN1CCC2(CC1)CCN(c1ccc(-c3ccc(C(=O)O)cc3)cc1)C2=O | 634 ng·h/mL/mg/kg | 
Cc1cc(CCC(=O)O)cnc1CN1CCC2(CC1)CCN(c1ccc(-c3ccccc3)cc1)C2=O |  | 22.6 ng·h/mL/mg/kg

— ChEMBL document CHEMBL2440087, “Novel complex crystal structure of prolyl hydroxylase domain-containing protein 2 (PHD2): 2,8-Diazaspiro[4.5]decan-1-ones as potent, orally bioavailable PHD2 inhibitors” (Bioorg Med Chem, 2013)
